Test results from patent US8080555B2, “Purine derivatives and their use for treatment of autoimmune diseases” (Prometic Biosciences Inc., priority 2005, dated 2011).
Where a name gives a salt, the structure may show the parent alone.

Tests used:
[1] = target: T1, Fc portion of human IgG; test: Competitive protein A binding ELISA (inhibition of binding of protein A to human IgG); conditions: HRP-human IgG, assay in PBS, read-out: IC50 (μM) Assay in PBS, concentration which inhibits 50% binding of protein A
T1 construct: fused on or other part: Horseradish peroxidase chemically conjugated to the IgG (detection label)
Procedure: As described above, this assay evaluates the ability of the exemplified compounds to mimic protein A. Such compounds can bind to the Fc portion of human IgG as ascertained by the inhibition of binding of protein A to human IgG. The competitive protein A binding ELISA assay was performed on a 96-well plate MAXISORP® surface to enhance the binding of protein A to the bottom of the plate. The wells were coated with 100 μL of protein A (0.8 μg) and incubated overnight at 4° C. After incubation, unbound protein A was removed by three washes with phosphate buffer saline (PBS). The plate was then incubated with 100 μL/well of a 2% solution of bovine serum albumin (BSA) for 1 h at 37° C. to block nonspecific protein binding. After incubation, the plate was washed three times with PBS. 50 μL of compound or protein A, diluted in PBS or PBS-20% DMSO at appropriate concentration, were added to the wells followed by addition of 50 μL of peroxidase-conjugated human IgG (HRP-IgG). After 1 h incubation at 37° C., the plate was washed three times with PBS to remove unbound HRP-IgG. Bound HRP-IgG was detected by incubation with 100 μL of 2,2′-azino-di[3-ethylbenzthiazoline sulfonate] diammonium salt crystals (ABTS) solution for 20 min in the dark at room temperature. The plate was then read at 405 nm on a BIO-TEK® EL 800 Universal Microplate Reader. Data was analyzed in a MICROSOFT® EXCEL® spreadsheet and the concentration of compound which inhibits 50% binding of protein A (IC50) was calculated using PRISM® software, as shown in Table 1.

[2] = tested on: LPS-induced TNFα production in J774A-1 cells; test: LPS-induced TNFα production in J774A-1 cells, TNFα by ELISA; assay type: cell-based; conditions: Mus musculus, J774.A1, 24 h, read-out: IC50 (μM), concentration which inhibits 50% of TNFα production
Procedure: The effect of compounds on TNFα production was measured by ELISA using J774-1 cells stimulated by lipopolysaccharide (LPS). J774-1 cells were cultured in the presence or absence of LPS and compound. Cells were cultured at 37° C. for 24 h and thereafter the supernatants were collected for the determination of the concentration of TNFα by ELISA as recommended by the manufacturer (BD Biosciences). Data was analyzed in a MICROSOFT® EXCEL® spreadsheet and the concentration of compound which inhibits 50% of TNFα production (IC50) was calculated using PRISM® software, as shown in Table 2.

[3] = tested on: oxazolone-induced delayed-type hypersensitivity (DTH); test: Oxazolone-induced delayed-type hypersensitivity (DTH) in mice; assay type: in vivo; conditions: for Inflammation/Ear thickness (mm), Challenge 1 / Inflammation/Ear thickness (mm), Challenge 2: intravenous, 50 mg/kg day 0, 1 and 2; for Inflammation/Ear thickness (mm), Challenge 1: first challenge day 3; for Inflammation/Ear thickness (mm), Challenge 2: second challenge day 10
Procedure: Compounds were tested for their ability to treat oxazolone-induced delayed-type hypersensitivity (DTH) in mice. On day 0, mice were sensitized with 100 μL of oxazolone in 5% acetone. On day 0, 1 and 2, mice were treated by intravenous administration of the vehicle (control) or methotrexate (MTX; positive control) or the compound at 50 mg/kg. Mice were challenged with an application of 50 μL of oxazolone on the surface of the right ear (first challenge, day 3; second challenge, day 10). Ear thickness was measured on day 4 to day 7, and on day 11 to 14. Redness and crust formation was also observed. Mice were sacrificed on day 14. TDTH (CD4) cells play an important role in regulating the intensity of the DTH response.
The effect of oral administration of compound 1 was determined following the protocol described above with the exception that compound 1 was orally administered at 50 or 150 mg/kg from day 0 to day 13. The positive control was hydrocortisone.

[4] = tested on: Freund's adjuvant-induced arthritis (AIA); test: Freund's adjuvant-induced arthritis (AIA) in female Lewis rats; assay type: in vivo
Procedure: AIA was induced in female Lewis rats by the injection of lyophilized Mycobacterium butyricum suspended in mineral oil into the footpad. The development of arthritis was monitored over a 3 week period post-adjuvant injection. Inflammation peaks at day 3 following the adjuvant administration. Immune activation appears around day 14. Compounds were injected i.v. day-3, -2 and -1 pre-adjuvant injection and at day 10, 11 and 12 post-adjuvant injection. Body weight was recorded. The arthritis index, which is a measure of inflammation (edema), redness, and stiffness of the articulations, was used to monitor the development of the disease. The degree of arthritis was determined by measuring two perpendicular diameters of the ankles in the mediolateral and dorsoventral planes using a caliper. Joint circumference in millimeters is then calculated using a geometric formula. Both the incidence and severity of the arthritis was evaluated. Incidence is defined as the number of rats with clinical evidence of joint inflammation during the study period.
The effect of oral administration of compound 1 was determined following the protocol described above with the exception that compound 1 was orally administered at 50 mg/kg from day-3 to day 19. The positive control was indomethacin.

With Nc1ccc(CCn2cnc3c(Nc4cccc(N)c4)ncnc32)cc1 [Compound 1, N-{9-[2-(4-aminophenyl)ethyl]-9H-purin-6-yl}benzene-1,3-diamine dihydrochloride] the IC50 [1] was 1 µM, the IC50 [2] was greater than 100 µM and the “potency compared to methotrexate in DTH” value ([3]; intravenous administration) was “equipotent to methotrexate”. The “redness, crust formation, and ear swelling” value ([3]; intravenous administration) was “reduces”, the “reduction of the inflammation as seen by lower ear thickness” value ([3]; intravenous administration) was “significant reduction” and the “Inflammation/Ear thickness (mm), Challenge 1” value [3] was 0.19 ± 0.06 mm. The “Inflammation/Ear thickness (mm), Challenge 2” value [3] was 0.56 ± 0.12 mm, the “reduction of the inflammation as seen by lower ear thickness” value ([3]; oral, 50 or 150 mg/kg day 0 to day 13, challenges 1 and 2, FIG. 1) was “significant reduction” and the “reduction in the severity of arthritis (inflammatory index)” value (“reduction … (inflammatory index)” for short) ([4]; intravenous injection, FIG. 2) was “up to 25%”. For the same compound, the “reduction … (inflammatory index)” value ([4]; oral administration, FIG. 3) was 10-30%.
Work on Nc1ccc(CCn2cnc3c(Nc4cccc(N)c4)nc(N)nc32)cc1 [Compound 2, N6-(3-Amino-phenyl)-9-[2-(4-amino-phenyl)-ethyl]-9H-purine-2,6-diamine] yielded an IC50 [1] of 13 µM and an IC50 [2] of 76 µM.
Nc1ccc(CCn2cnc3c(Nc4cccc(N)c4)nc(NCC4CC4)nc32)cc1 [Compound 3, N6-(3-Amino-phenyl)-9-[2-(4-amino-phenyl)-ethyl]-N2-cyclopropylmethyl-9H-purine-2,6-diamine] showed an IC50 [1] of 0.7 µM and an IC50 [2] greater than 50 µM.
With Nc1ccc(CCn2cnc3c(Nc4cccc(N)c4)nc(NCCCCCCO)nc32)cc1 [Compound 4, 6-{6-(3-Amino-phenylamino)-9-[2-(4-amino-phenyl)-ethyl]-9H-purin-2-ylamino}-hexan-1-ol] the IC50 [1] was 4.8 µM and the IC50 [2] was greater than 50 µM.
Nc1ccc(CCn2cnc3c(Nc4cccc(N)c4)nc(NC4CC4)nc32)cc1 [Compound 5, N6-(3-Amino-phenyl)-9-[2-(4-amino-phenyl)-ethyl]-N2-cyclopropyl-9H-purine-2,6-diamine] gave an IC50 [1] of 13 µM and an IC50 [2] of 9.2 µM.
CC(C)(C)Nc1nc(Nc2cccc(N)c2)c2ncn(CCc3ccc(N)cc3)c2n1 [Compound 6, N6-(3-Amino-phenyl)-9-[2-(4-amino-phenyl)-ethyl]-N2-tert-butyl-9H-purine-2,6-diamine] was tested, and the IC50 [1] was 1.8 µM and the IC50 [2] was 2.3 µM.
Nc1ccc(Cn2cnc3c(Nc4cccc(N)c4)ncnc32)cc1 [Compound 7, N-[9-(4-Amino-benzyl)-9H-purin-6-yl]-benzene-1,3-diamine] gave an IC50 [1] of 0.2 µM and an IC50 [2] greater than 100 µM.
For Nc1ccc(CCn2cnc3c(Nc4cccc(N)c4)nc(NCCO)nc32)cc1 [Compound 8, 2-{6-(3-Amino-phenylamino)-9-[2-(4-amino-phenyl)-ethyl]-9H-purin-2-ylamino}-ethanol], the IC50 [1] was 64 µM and the IC50 [2] was 11 µM.
Work on Nc1cccc(Nc2nc(F)nc3c2ncn3CCc2ccc(OCc3ccccc3)cc2)c1 [Compound 9, N-{9-[2-(4-Benzyloxy-phenyl)-ethyl]-2-fluoro-9H-purin-6-yl}-benzene-1,3-diamine] yielded an IC50 [1] of 7.1 µM and an IC50 [2] greater than 50 µM.
In the case of CC(C)(C)CNc1nc(Nc2cccc(N)c2)c2ncn(CCc3ccc(N)cc3)c2n1 [Compound 10, N6-(3-Amino-phenyl)-9-[2-(4-amino-phenyl)-ethyl]-N2-(2,2-dimethyl-propyl)-9H-purine-2,6-diamine], the IC50 [1] is reported as 6 µM and the IC50 [2] is reported as 5.3 µM.
CC(C)CNc1nc(Nc2cccc(N)c2)c2ncn(CCc3ccc(N)cc3)c2n1 [Compound 11, N6-(3-Amino-phenyl)-9-[2-(4-amino-phenyl)-ethyl]-N2-isobutyl-9H-purine-2,6-diamine] was tested, and the IC50 [1] was 22 µM and the IC50 [2] was 11 µM.
Nc1cccc(CCn2cnc3c(Nc4cccc(N)c4)ncnc32)c1 [Compound 12, N-{9-[2-(3-Amino-phenyl)-ethyl]-9H-purin-6-yl}-benzene-1,3-diamine] showed an IC50 [1] of 52 µM and an IC50 [2] greater than 50 µM.
With Nc1ccc(CCn2cnc3c(Nc4cccc(N)c4)nc(NC4CCCC4)nc32)cc1 [Compound 13, N6-(3-Amino-phenyl)-9-[2-(4-amino-phenyl)-ethyl]-N2-cyclopentyl-9H-purine-2,6-diamine] the IC50 [1] was 0.2 µM and the IC50 [2] was 6.2 µM.
Nc1cccc(Nc2ncnc3c2ncn3CCc2ccc(F)cc2)c1 [Compound 14, N-{9-[2-(4-Fluoro-phenyl)-ethyl]-9H-purin-6-yl}-benzene-1,3-diamine] was tested, and the IC50 [1] was 0.6 µM and the IC50 [2] was greater than 50 µM.
With CN(Cc1cnc2nc(N)nc(N)c2n1)c1ccc(C(=O)N[C@@H](CCC(=O)O)C(=O)O)cc1 [Methotrexate, methotrexate, reference compound] the “Inflammation/Ear thickness (mm), Challenge 1” value [3] was 0.17 ± 0.04 mm, the “Inflammation/Ear thickness (mm), Challenge 2” value [3] was 0.46 ± 0.17 mm and the “reduction … (inflammatory index)” value ([4]; intravenous injection, FIG. 2) was 20%.
For COc1ccc2c(c1)c(CC(=O)O)c(C)n2C(=O)c1ccc(Cl)cc1 [indomethacin, reference compound], the “reduction … (inflammatory index)” value ([4]; oral administration, FIG. 3) was 10-40%.
